Measured values published in patent US20080063668A1, “Nitroimidazole and terconazole composition and method” (priority 2006, published 2008).

How the values were obtained:
Test in all cases: Inhibition of bacteria growth, drug dilution tubes, anaerobic
Assay type in all cases: cell-based
Parameters in all cases: key: (+) for growth; (−) for no growth; (±) for suboptimal growth after an initial observation of growth
[1] = system: Mobiluncus curtisii var. holmesii ATCC 35242
Protocol: (§1) Serial dilutions of tinidazole and terconazole were prepared by adding measured amounts of each substance to water (both individually and in combination). Seven bacterial organisms that are common pathogens in bacterial vaginosis were grown anaerobically in the medium as listed in Table 4 under a N2/H2/CO2 (85:5:10) head space atmosphere. [table] These cultures were diluted to a 0.5 McFarland standard prior to inoculation of drug dilution tubes. One (1) mL of the 0.5 McFarland preparation was inoculated to an anaerobically prepared test tube containing 0.8 mL of Difco anaerobic medium (DAMM) and 0.2 mL of appropriate diluted antimicrobial or antimicrobial combination for a total of 2 mL. The inoculated tubes were then incubated at 37° C. and monitored daily for growth. Growth was scored with a (+) for growth, (−) for no growth, and (±) for suboptimal growth after an initial observation of growth. Tinidazole is abbreviated as TNZ and terconazole is abbreviated as TER in Tables 5 through 11.

[2] = system: Mobiluncus curtisii var. curtisii ATCC 35241
Protocol: as §1

[3] = system: Bacteroides fragilis ATCC 25285
Protocol: as §1

Measured: growth

CCS(=O)(=O)CCn1c([N+](=O)[O-])cnc1C [TNZ, 1-[2-(ethylsulfonyl)ethyl]-2-methyl-5-nitroimidazole]
(−): [2]; TNZ 250 μg/ml, DAY 1 | [2]; TNZ 500 μg/ml, DAY 1 | [2]; TNZ 500 μg/ml, DAY 2 | [2]; TNZ 500 μg/ml, DAY 3 | [2]; TNZ 500 μg/ml, DAY 4 | [3]; TNZ 2 μg/ml, DAY 1 | [3]; TNZ 2 μg/ml, DAY 2 | [3]; TNZ 2 μg/ml, DAY 3 | [3]; TNZ 2 μg/ml, DAY 4 | [3]; TNZ 3.9 μg/ml, DAY 1 | [3]; TNZ 3.9 μg/ml, DAY 2 | [3]; TNZ 3.9 μg/ml, DAY 3 | [3]; TNZ 3.9 μg/ml, DAY 4 | [3]; TNZ 3.9 μg/ml, DAY 5 | [3]; TNZ 7.8 μg/ml, DAY 1 | [3]; TNZ 7.8 μg/ml, DAY 2 | [3]; TNZ 7.8 μg/ml, DAY 3 | [3]; TNZ 7.8 μg/ml, DAY 4 | [3]; TNZ 7.8 μg/ml, DAY 5 | [3]; TNZ 15.6 μg/ml, DAY 1 | [3]; TNZ 15.6 μg/ml, DAY 2 | [3]; TNZ 15.6 μg/ml, DAY 3 | [3]; TNZ 15.6 μg/ml, DAY 4 | [3]; TNZ 15.6 μg/ml, DAY 5 | [3]; TNZ 31.3 μg/ml, DAY 1 | [3]; TNZ 31.3 μg/ml, DAY 2 | [3]; TNZ 31.3 μg/ml, DAY 3 | [3]; TNZ 31.3 μg/ml, DAY 4 | [3]; TNZ 31.3 μg/ml, DAY 5 | [3]; TNZ 62.5 μg/ml, DAY 1 | [3]; TNZ 62.5 μg/ml, DAY 2 | [3]; TNZ 62.5 μg/ml, DAY 3 | [3]; TNZ 62.5 μg/ml, DAY 4 | [3]; TNZ 62.5 μg/ml, DAY 5 | [3]; TNZ 125 μg/ml, DAY 1 | [3]; TNZ 125 μg/ml, DAY 2 | [3]; TNZ 125 μg/ml, DAY 3 | [3]; TNZ 125 μg/ml, DAY 4 | [3]; TNZ 125 μg/ml, DAY 5 | [3]; TNZ 250 μg/ml, DAY 1 | [3]; TNZ 250 μg/ml, DAY 2 | [3]; TNZ 250 μg/ml, DAY 3 | [3]; TNZ 250 μg/ml, DAY 4 | [3]; TNZ 250 μg/ml, DAY 5 | [3]; TNZ 500 μg/ml, DAY 1 | [3]; TNZ 500 μg/ml, DAY 2 | [3]; TNZ 500 μg/ml, DAY 3 | [3]; TNZ 500 μg/ml, DAY 4 | [3]; TNZ 500 μg/ml, DAY 5
(+): [1]; TNZ 2 μg/ml, DAY 1 | [1]; TNZ 2 μg/ml, DAY 2 | [1]; TNZ 2 μg/ml, DAY 3 | [1]; TNZ 2 μg/ml, DAY 4 | [1]; TNZ 2 μg/ml, DAY 5 | [1]; TNZ 3.9 μg/ml, DAY 1 | [1]; TNZ 3.9 μg/ml, DAY 2 | [1]; TNZ 3.9 μg/ml, DAY 3 | [1]; TNZ 3.9 μg/ml, DAY 4 | [1]; TNZ 3.9 μg/ml, DAY 5 | [1]; TNZ 7.8 μg/ml, DAY 1 | [1]; TNZ 7.8 μg/ml, DAY 2 | [1]; TNZ 7.8 μg/ml, DAY 3 | [1]; TNZ 7.8 μg/ml, DAY 4 | [1]; TNZ 7.8 μg/ml, DAY 5 | [1]; TNZ 15.6 μg/ml, DAY 1 | [1]; TNZ 15.6 μg/ml, DAY 2 | [1]; TNZ 15.6 μg/ml, DAY 3 | [1]; TNZ 15.6 μg/ml, DAY 4 | [1]; TNZ 15.6 μg/ml, DAY 5 | [1]; TNZ 31.3 μg/ml, DAY 1 | [1]; TNZ 31.3 μg/ml, DAY 2 | [1]; TNZ 31.3 μg/ml, DAY 3 | [1]; TNZ 31.3 μg/ml, DAY 4 | [1]; TNZ 31.3 μg/ml, DAY 5 | [1]; TNZ 62.5 μg/ml, DAY 1 | [1]; TNZ 62.5 μg/ml, DAY 2 | [1]; TNZ 62.5 μg/ml, DAY 3 | [1]; TNZ 62.5 μg/ml, DAY 4 | [1]; TNZ 62.5 μg/ml, DAY 5 | [1]; TNZ 125 μg/ml, DAY 1 | [1]; TNZ 125 μg/ml, DAY 2 | [1]; TNZ 125 μg/ml, DAY 3 | [1]; TNZ 125 μg/ml, DAY 4 | [1]; TNZ 125 μg/ml, DAY 5 | [1]; TNZ 250 μg/ml, DAY 1 | [1]; TNZ 250 μg/ml, DAY 2 | [1]; TNZ 250 μg/ml, DAY 3 | [1]; TNZ 250 μg/ml, DAY 4 | [1]; TNZ 250 μg/ml, DAY 5 | [1]; TNZ 500 μg/ml, DAY 1 | [1]; TNZ 500 μg/ml, DAY 2 | [1]; TNZ 500 μg/ml, DAY 3 | [1]; TNZ 500 μg/ml, DAY 4 | [1]; TNZ 500 μg/ml, DAY 5 | [2]; TNZ 2 μg/ml, DAY 1 | [2]; TNZ 2 μg/ml, DAY 2 | [2]; TNZ 2 μg/ml, DAY 3 | [2]; TNZ 2 μg/ml, DAY 4 | [2]; TNZ 2 μg/ml, DAY 5 | [2]; TNZ 3.9 μg/ml, DAY 1 | [2]; TNZ 3.9 μg/ml, DAY 2 | [2]; TNZ 3.9 μg/ml, DAY 3 | [2]; TNZ 3.9 μg/ml, DAY 4 | [2]; TNZ 3.9 μg/ml, DAY 5 | [2]; TNZ 7.8 μg/ml, DAY 1 | [2]; TNZ 7.8 μg/ml, DAY 2 | [2]; TNZ 7.8 μg/ml, DAY 3 | [2]; TNZ 7.8 μg/ml, DAY 4 | [2]; TNZ 7.8 μg/ml, DAY 5 | [2]; TNZ 15.6 μg/ml, DAY 1 | [2]; TNZ 15.6 μg/ml, DAY 2 | [2]; TNZ 15.6 μg/ml, DAY 3 | [2]; TNZ 15.6 μg/ml, DAY 4 | [2]; TNZ 15.6 μg/ml, DAY 5 | [2]; TNZ 31.3 μg/ml, DAY 1 | [2]; TNZ 31.3 μg/ml, DAY 2 | [2]; TNZ 31.3 μg/ml, DAY 3 | [2]; TNZ 31.3 μg/ml, DAY 4 | [2]; TNZ 31.3 μg/ml, DAY 5 | [2]; TNZ 62.5 μg/ml, DAY 1 | [2]; TNZ 62.5 μg/ml, DAY 2 | [2]; TNZ 62.5 μg/ml, DAY 3 | [2]; TNZ 62.5 μg/ml, DAY 4 | [2]; TNZ 62.5 μg/ml, DAY 5 | [2]; TNZ 125 μg/ml, DAY 1 | [2]; TNZ 125 μg/ml, DAY 2 | [2]; TNZ 125 μg/ml, DAY 3 | [2]; TNZ 125 μg/ml, DAY 4 | [2]; TNZ 125 μg/ml, DAY 5 | [2]; TNZ 250 μg/ml, DAY 2 | [2]; TNZ 250 μg/ml, DAY 3 | [2]; TNZ 250 μg/ml, DAY 4 | [2]; TNZ 250 μg/ml, DAY 5 | [2]; TNZ 500 μg/ml, DAY 5 | [3]; TNZ 2 μg/ml, DAY 5
